Measurements reported in US9963445B2, “Chemical compounds” (SYNGENTA PARTICIPATIONS AG, priority 2013, dated 2018).

How the values were obtained:
Format in all cases: in vivo
zea mays [1] = assay: Pre-emergence herbicidal activity, glasshouse pot test; settings: pre-emergence spray, rate 1000 g/ha, evaluated after 13 days, scale 0-5
Protocol: (§1) Seeds of a variety of test species were sown in standard soil in pots. After cultivation for one day (pre-emergence) under controlled conditions in a glasshouse (at 24/16° C., day/night; 14 hours light; 65% humidity), the plants were sprayed with an aqueous spray solution derived from the formulation of the technical active ingredient in acetone/water (50:50) solution containing 0.5% Tween 20 (polyoxyethelyene sorbitan monolaurate, CAS RN 9005-64-5). The test plants were then grown in a glasshouse under controlled conditions (at 24/16° C., day/night; 14 hours light; 65% humidity) and watered twice daily. After 13 days, the test was evaluated (5=total damage to plant; 0=no damage to plant).
(§2) ABUTH=Abutilon theophrasti; SOLNI=Solanum nigrum; AMARE=Amaranthus retroflexus; SETFA=Setaria faberi; ALOMY=Alopecurus myosuroides; ECHCG=Echinochloa crus-galli, ZEAMX=zea mays.

Abutilon theophrasti [2] = assay: as above; settings: pre-emergence spray, rate 1000 g/ha, evaluated after 13 days, scale 0-5
Protocol: as §1, §2

Echinochloa crus-galli [3] = assay: as above; settings: pre-emergence spray, rate 1000 g/ha, evaluated after 13 days, scale 0-5
Protocol: as §1, §2

Amaranthus retroflexus [4] = assay: as above; settings: pre-emergence spray, rate 1000 g/ha, evaluated after 13 days, scale 0-5
Protocol: as §1, §2

Alopecurus myosuroides [5] = assay: as above; settings: pre-emergence spray, rate 1000 g/ha, evaluated after 13 days, scale 0-5
Protocol: as §1, §2

Setaria faberi [6] = assay: as above; settings: pre-emergence spray, rate 1000 g/ha, evaluated after 13 days, scale 0-5
Protocol: as §1, §2

zea mays [7] = assay: Post-emergence herbicidal activity, glasshouse pot test; set-up: key: 0 = no damage to plant, 5 = total damage to plant; settings: Application post-emergence, rate 1000 g/ha, evaluated after 13 days
Protocol: (§3) Seeds of a variety of test species were sown in standard soil in pots. After 8 days cultivation (post-emergence) under controlled conditions in a glasshouse (at 24/16° C., day/night; 14 hours light; 65% humidity), the plants were sprayed with an aqueous spray solution derived from the formulation of the technical active ingredient in acetone/water (50:50) solution containing 0.5% Tween 20 (polyoxyethelyene sorbitan monolaurate, CAS RN 9005-64-5). The test plants were then grown in a glasshouse under controlled conditions (at 24/16° C., day/night; 14 hours light; 65% humidity) and watered twice daily. After 13 days, the test was evaluated (5=total damage to plant; 0=no damage to plant).
as §2

Abutilon theophrasti [8] = assay: as above; set-up: key: 0 = no damage to plant, 5 = total damage to plant; settings: Application post-emergence, rate 1000 g/ha, evaluated after 13 days
Protocol: as §3, §2

Echinochloa crus-galli [9] = assay: as above; set-up: key: 0 = no damage to plant, 5 = total damage to plant; settings: Application post-emergence, rate 1000 g/ha, evaluated after 13 days
Protocol: as §3, §2

Amaranthus retroflexus [10] = assay: as above; set-up: key: 0 = no damage to plant, 5 = total damage to plant; settings: Application post-emergence, rate 1000 g/ha, evaluated after 13 days
Protocol: as §3, §2

Alopecurus myosuroides [11] = assay: as above; set-up: key: 0 = no damage to plant, 5 = total damage to plant; settings: Application post-emergence, rate 1000 g/ha, evaluated after 13 days
Protocol: as §3, §2

Setaria faberi [12] = assay: as above; set-up: key: 0 = no damage to plant, 5 = total damage to plant; settings: Application post-emergence, rate 1000 g/ha, evaluated after 13 days
Protocol: as §3, §2

Compound | ZEAMX damage score, application pre-emergence (zea mays [1]) | ABUTH damage score, application pre-emergence (Abutilon theophrasti [2]) | ECHCG damage score, application pre-emergence (Echinochloa crus-galli [3]) | AMARE damage score, application pre-emergence (Amaranthus retroflexus [4]) | ALOMY damage score, application pre-emergence (Alopecurus myosuroides [5]) | SETFA damage score, application pre-emergence (Setaria faberi [6]) | ZEAMX herbicidal damage score (zea mays [7]) | ABUTH herbicidal damage score (Abutilon theophrasti [8]) | ECHCG herbicidal damage score (Echinochloa crus-galli [9]) | AMARE herbicidal damage score (Amaranthus retroflexus [10]) | ALOMY herbicidal damage score (Alopecurus myosuroides [11]) | SETFA herbicidal damage score (Setaria faberi [12])
CC1=C(Cl)C(=O)N(c2cc(F)ccn2)C1O (stereo not drawn) [AF39] | 1 | 4 | 4 | 4 | 3 | 3 | 2 | 5 | 5 | 5 | 4 | 4
CC1=C(Cl)C(=O)N(c2cc(C(C)F)ccn2)C1O (stereo not drawn) [AF40] | 2 | 5 | 4 | 5 | 2 | 5 | 5 | 5 | 5 | 5 | 3 | 4
CC1=C(Cl)C(=O)N(c2cc(C)ccn2)C1O (stereo not drawn) [AF41] | 3 | 5 | 4 | 5 | 4 | 4 | 4 | 5 | 5 | 5 | 5 | 5
COC(=O)c1cnc(N2C(=O)C(Cl)=C(C)C2O)cc1C(F)(F)F (stereo not drawn) [AF42] | 0 | 0 | 0 | 0 | 0 | 0 | 1 | 4 | 4 | 4 | 3 | 5
CC1=C(Cl)C(=O)N(c2cc(C(F)(F)F)c(C(F)(F)F)cn2)C1O (stereo not drawn) [AF43] | 0 | 0 | 0 | 0 | 0 | 0 | 0 | 1 | 5 | 1 | 2 | 5
COc1ccnc(N2C(=O)C(Cl)=C(C)C2O)c1 (stereo not drawn) [AF44] | 0 | 0 | 0 | 0 | 0 | 0 | 2 | 3 | 4 | 1 | 3 | 1
CC1=C(Cl)C(=O)N(c2cc(C)c([N+](=O)[O-])cn2)C1O (stereo not drawn) [AF48] | 0 | 0 | 1 | 0 | 1 | 0 | 0 | 0 | 3 | 5 | 2 | 3
CC1=C(Cl)C(=O)N(c2cc(C#N)ccn2)C1O (stereo not drawn) [AF50] | 0 | 0 | 0 | 0 | 2 | 1 | 2 | 5 | 5 | 1 | 5 | 5
CC1=C(Cl)C(=O)N(c2cc([S+](C)[O-])ccn2)C1O (stereo not drawn) [AF51] | 0 | 0 | 0 | 0 | 0 | 0 | 0 | 4 | 3 | 0 | 3 | 3
CC1=C(Cl)C(=O)N(c2ccc([S+](C)[O-])cn2)C1O (stereo not drawn) [AF53] | 1 | 0 | 1 | 1 | 2 | 0 | 0 | 3 | 3 | 1 | 3 | 3
CC1=C(Cl)C(=O)N(c2ccc(S(C)(=O)=O)cn2)C1O (stereo not drawn) [AF54] | 2 | 0 | 1 | 0 | 0 | 0 | 0 | 2 | 3 | 0 | 2 | 1
COc1ccc(N2C(=O)C(Cl)=C(C)C2O)nc1 (stereo not drawn) [AF56] | 0 | 2 | 0 | 1 | 0 | 0 | 2 | 5 | 4 | 3 | 4 | 4
CC1=C(Cl)C(=O)N(c2cc(C(F)(F)F)c(Cl)cn2)C1O (stereo not drawn) [AF58] | 0 | 2 | 4 | 5 | 3 | 3 | 3 | 5 | 5 | 5 | 4 | 5
COc1ccc(-c2ccc(N3C(=O)C(Cl)=C(C)C3O)nc2)cc1 (stereo not drawn) [AF59] | 0 | 2 | 1 | 3 | 0 | 0 | 0 | 4 | 1 | 3 | 1 | 2
CC1=C(Cl)C(=O)N(c2ccc(C#N)cn2)C1O (stereo not drawn) [AF60] | 0 | 0 | 0 | 0 | 0 | 0 | 0 | 0 | 1 | 0 | 1 | 1
